The values below come from patent US20240116985A1, “STAPLED PEPTIDES AND METHODS THEREOF” (priority 2020, published 2024).

Test [1] has as its target T1, beta-catenin/TCF4 engagement (Homo sapiens, UniProt P35222).
T1 construct: expressed in transfected cells; host or cells: HEK293
T1 sequence (P35222 1-781): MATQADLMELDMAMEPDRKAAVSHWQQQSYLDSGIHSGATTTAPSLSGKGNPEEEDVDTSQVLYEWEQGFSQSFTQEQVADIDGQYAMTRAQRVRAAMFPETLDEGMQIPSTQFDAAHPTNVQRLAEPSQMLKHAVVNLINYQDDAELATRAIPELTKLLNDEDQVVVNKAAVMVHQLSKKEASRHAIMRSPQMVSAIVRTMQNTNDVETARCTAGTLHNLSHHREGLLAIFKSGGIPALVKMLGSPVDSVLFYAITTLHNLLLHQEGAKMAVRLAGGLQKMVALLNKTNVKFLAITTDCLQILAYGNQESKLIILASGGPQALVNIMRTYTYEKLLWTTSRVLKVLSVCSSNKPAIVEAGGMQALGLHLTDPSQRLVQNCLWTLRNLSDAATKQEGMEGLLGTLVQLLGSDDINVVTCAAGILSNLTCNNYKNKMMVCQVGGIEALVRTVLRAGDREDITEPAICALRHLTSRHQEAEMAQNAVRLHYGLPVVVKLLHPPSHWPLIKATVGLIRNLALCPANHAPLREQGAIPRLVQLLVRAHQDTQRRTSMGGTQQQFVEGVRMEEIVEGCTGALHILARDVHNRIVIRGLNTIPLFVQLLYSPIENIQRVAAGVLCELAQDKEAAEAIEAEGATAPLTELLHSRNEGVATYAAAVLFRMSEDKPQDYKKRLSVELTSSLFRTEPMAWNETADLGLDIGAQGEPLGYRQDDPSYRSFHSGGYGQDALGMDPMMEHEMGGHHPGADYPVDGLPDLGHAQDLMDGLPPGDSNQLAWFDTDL
The experiment in a line: Nano-BRET target engagement assay (B-cat-Halo & TCF4-Luc in HEK293 cells). The class given is cell-based. To be noted: absolute IC50; read-out: NanoBRET Abs IC50. On the technique in general: Bioluminescence resonance energy transfer reports proximity on the nanometre scale.

Test [2] deals with T2, full-length beta-Catenin (Uniprot ID P35222) (Homo sapiens, UniProt P35222).
T2 construct: 10 nM full-length beta-Catenin (Uniprot ID P35222)
T2 sequence (P35222 1-781): T1 sequence (P35222 1-781)
The experiment in a line: Fluorescence polarization IC50 (beta-catenin / 5FAM-TCF4 10-53 competition). The note with it: fluorescence polarization; read-out: beta-Catenin FP IC50. The class given is binding. (Fluorescence polarisation rises when a labelled molecule tumbles more slowly, as on binding a larger partner.)

By IC50 is commonly meant the concentration that inhibits the measured activity by half. On to `CC(=O)N1CCC[C@]12CC=CCCCC1(CCCC=CCCCOC(=O)N3CC[C@@](C(=O)N[C@@H](Cc4ccccc4)C(=O)N[C@@H](Cc4csc5ccccc45)C(=O)N[C@@H](CCCCN)C(N)=O)(C3)NC(=O)[C@H](CC(C)C)NC(=O)[C@H](Cc3ccccc3)NC(=O)[C@H](C)NC(=O)[C@H](CCC(N)=O)NC(=O)[C@H](CCC(N)=O)NC(=O)[C@H](CC(=O)O)NC1=O)NC(=O)[C@H](CC1CCCCC1)NC(=O)[C@H](CC(N)=O)NC2=O` (stereo partly drawn) [I-2421, Ac-PL3-Asn-Cha-B5-Asp-Gln-Gln-Ala-Phe-Leu-PyrS2-Phe-BztA-Lys-NH2], for which the values for the IC50 in test [1] and in test [2] were above 20000 nM and 145 nM, respectively.
In the case of `CC(=O)N1CCC[C@]12CC=CCCCC1(CCCC=CCCCOC(=O)N3CC[C@@](C(=O)N[C@@H](Cc4ccccc4)C(=O)N[C@@H](Cc4csc5ccccc45)C(=O)N[C@@H](CCCCN)C(N)=O)(C3)NC(=O)[C@H](CC(C)C)NC(=O)[C@H](Cc3ccccc3)NC(=O)[C@H](C)NC(=O)[C@H](CCCCNC(C)C)NC(=O)[C@H](CCC(N)=O)NC(=O)[C@H](CC(=O)O)NC1=O)NC(=O)[C@H](CC1CCCCC1)NC(=O)[C@H](CC(=O)O)NC2=O` (stereo partly drawn) [I-2429, Ac-PL3-Asp-Cha-B5-Asp-Gln-iPrLys-Ala-Phe-Leu-PyrS2-Phe-BztA-Lys-NH2], the results for the IC50 in test [1] and in test [2] were above 20000 nM and 10 nM, respectively.
`CC(=O)N1CCC[C@]12CC=CCCCC1(CCCC=CCCCOC(=O)N3CC[C@@](C(=O)N[C@@H](Cc4ccccc4C(F)(F)F)C(=O)N[C@@H](Cc4csc5ccccc45)C(=O)N[C@@H](CCC(N)=O)C(N)=O)(C3)NC(=O)[C@H](CC(C)C)NC(=O)[C@H](Cc3ccccc3)NC(=O)[C@H](C)NC(=O)[C@H](C)NC(=O)[C@H](Cc3cc(C(=O)O)cc(C(C)C)c3)NC(=O)[C@H](CC(=O)O)NC1=O)NC(=O)[C@H](CC(C)(C)C)NC(=O)[C@H](CC(=O)O)NC2=O` (stereo partly drawn) [I-2430, Ac-PL3-Asp-Npg-B5-Asp-5iPr3COOHF-Ala-Ala-Phe-Leu-PyrS2-2F3MeF-BztA-Gln-NH2]: the IC50 in test [1] came to 4500 nM; in test [2], 32 nM.
For the compound `CC(=O)N1CCC[C@]12CC=CCCCC1(CCCC=CCCCOC(=O)N3CC[C@@](C(=O)N[C@@H](Cc4ccccc4C(F)(F)F)C(=O)N[C@@H](Cc4csc5ccccc45)C(=O)N[C@@H](C)C(N)=O)(C3)NC(=O)[C@H](CC(C)C)NC(=O)[C@H](Cc3ccccc3)NC(=O)[C@H](C)NC(=O)[C@H](CCC(N)=O)NC(=O)[C@H](Cc3cc(C(=O)O)cc(C(C)C)c3)NC(=O)[C@H](CC(=O)O)NC1=O)NC(=O)[C@H](CC(C)(C)C)NC(=O)[C@H](CC(=O)O)NC2=O` (stereo partly drawn) [I-2431, Ac-PL3-Asp-Npg-B5-Asp-5iPr3COOHF-Gln-Ala-Phe-Leu-PyrS2-2F3MeF-BztA-Ala-NH2], the IC50 in test [1] was 7000 nM; in test [2], 33 nM.
Taken in the same sequence, the figures for `CC(=O)N1CCC[C@]12CC=CCCCC1(CCCC=CCCCOC(=O)N3CC[C@@](C(=O)N[C@@H](Cc4ccsc4)C(=O)N[C@@H](Cc4csc5ccccc45)C(=O)N[C@@H](CCC(N)=O)C(N)=O)(C3)NC(=O)[C@H](CC(C)C)NC(=O)[C@H](Cc3ccccc3)NC(=O)[C@H](C)NC(=O)[C@H](CCCCNC(C)C)NC(=O)[C@H](CCC(N)=O)NC(=O)[C@H](CC(=O)O)NC1=O)NC(=O)[C@H](CC1CCCCC1)NC(=O)[C@H](CC(N)=O)NC2=O` (stereo partly drawn) [I-2446, Ac-PL3-Asn-Cha-B5-Asp-Gln-iPrLys-Ala-Phe-Leu-PyrS2-3Thi-BztA-Gln-NH2] were above 20000 nM and 93 nM.
The like results for `CC(=O)N1CCC[C@]12CC=CCCCC1(CCCC=CCCCOC(=O)N3CC[C@@](C(=O)N[C@@H](Cc4ccccc4)C(=O)N[C@@H](Cc4csc5ccccc45)C(=O)N[C@@H](CCC(N)=O)C(N)=O)(C3)NC(=O)[C@H](CC(C)C)NC(=O)[C@H](Cc3ccccc3)NC(=O)[C@H](C)NC(=O)[C@H](CCCCNC(C)C)NC(=O)[C@H]([C@@H](C)O)NC(=O)[C@H](CC(=O)O)NC1=O)NC(=O)[C@H](CC1CCCCC1)NC(=O)[C@H](CC(N)=O)NC2=O` (stereo partly drawn) [I-2448, Ac-PL3-Asn-Cha-B5-Asp-Thr-iPrLys-Ala-Phe-Leu-PyrS2-Phe-BztA-Gln-NH2] were, in that order, above 20000 nM and 84 nM.
With `CC(=O)N1CCC[C@]12CC=CCCCC1(CCCC=CCCCOC(=O)N3CC[C@@](C(=O)N[C@@H](Cc4ccccc4)C(=O)N[C@@H](Cc4csc5ccccc45)C(=O)N[C@@H](CCCCN)C(N)=O)(C3)NC(=O)[C@H](CC(C)C)NC(=O)[C@H](Cc3ccccc3)NC(=O)[C@H](C)NC(=O)[C@H](CCCCNC(C)C)NC(=O)[C@H]([C@@H](C)O)NC(=O)[C@H](CC(=O)O)NC1=O)NC(=O)[C@H](CC1CCCCC1)NC(=O)[C@H](CC(N)=O)NC2=O` (stereo partly drawn) [I-2450, Ac-PL3-Asn-Cha-B5-Asp-Thr-iPrLys-Ala-Phe-Leu-PyrS2-Phe-BztA-Lys-NH2], the IC50 was above 20000 nM in test [1] and 63 nM in test [2].
Consider `CC(=O)N1CCC[C@]12CC=CCCCC1(CCCC=CCCCOC(=O)N3CC[C@@](C(=O)N[C@@H](Cc4ccccc4C(F)(F)F)C(=O)N[C@H](C(=O)N[C@@H](CCC(N)=O)C(N)=O)[C@@H](C)c4csc5ccccc45)(C3)NC(=O)[C@H](CC(C)C)NC(=O)[C@H](Cc3ccccc3)NC(=O)[C@H](C)NC(=O)[C@H](C)NC(=O)[C@H](Cc3cccc(C(=O)O)c3)NC(=O)[C@H](CC(=O)O)NC1=O)NC(=O)[C@H](CC(C)(C)C)NC(=O)[C@H](CC(=O)O)NC2=O` (stereo partly drawn) [I-2456, Ac-PL3-Asp-Npg-B5-Asp-3COOHF-Ala-Ala-Phe-Leu-PyrS2-2F3MeF-SbMeBztA-Gln-NH2], for which the IC50 in test [1] is 8100 nM; in test [2], 49 nM.
As to `CC(=O)N1CCC[C@]12CC=CCCCC1(CCCC=CCCCOC(=O)N3CC[C@@](C(=O)N[C@@H](Cc4ccccc4C(F)(F)F)C(=O)N[C@H](C(=O)N[C@@H](C)C(N)=O)[C@@H](C)c4csc5ccccc45)(C3)NC(=O)[C@H](CC(C)C)NC(=O)[C@H](Cc3ccccc3)NC(=O)[C@H](C)NC(=O)[C@H](CCC(N)=O)NC(=O)[C@H](Cc3cccc(C(=O)O)c3)NC(=O)[C@H](CC(=O)O)NC1=O)NC(=O)[C@H](CC(C)(C)C)NC(=O)[C@H](CC(=O)O)NC2=O` (stereo partly drawn) [I-2457, Ac-PL3-Asp-Npg-B5-Asp-3COOHF-Gln-Ala-Phe-Leu-PyrS2-2F3MeF-SbMeBztA-Ala-NH2], the IC50 in test [1] came out at 20800 nM; in test [2], 52 nM.
Take `CC(=O)N1CCC[C@]12CC=CCCCC1(CCCC=CCCCOC(=O)N3CC[C@@](C(=O)N[C@@H](Cc4ccccc4C(F)(F)F)C(=O)N[C@H](C(=O)N[C@@H](CCC(N)=O)C(N)=O)[C@H](C)c4csc5ccccc45)(C3)NC(=O)[C@H](CC(C)C)NC(=O)[C@H](Cc3ccccc3)NC(=O)[C@H](C)NC(=O)[C@H](C)NC(=O)[C@H](Cc3cccc(C(=O)O)c3)NC(=O)[C@H](CC(=O)O)NC1=O)NC(=O)[C@H](CC(C)(C)C)NC(=O)[C@H](CC(=O)O)NC2=O` (stereo partly drawn) [I-2458, Ac-PL3-Asp-Npg-B5-Asp-3COOHF-Ala-Ala-Phe-Leu-PyrS2-2F3MeF-RbMeBztA-Gln-NH2]: the figures for the IC50 in test [1] and in test [2] were 5900 nM and 33 nM, respectively.
Take `CC(=O)N1CCC[C@]12CC=CCCCC1(CCCC=CCCCOC(=O)N3CC[C@@](C(=O)N[C@@H](Cc4ccccc4C(F)(F)F)C(=O)N[C@H](C(=O)N[C@@H](C)C(N)=O)[C@H](C)c4csc5ccccc45)(C3)NC(=O)[C@H](CC(C)C)NC(=O)[C@H](Cc3ccccc3)NC(=O)[C@H](C)NC(=O)[C@H](CCC(N)=O)NC(=O)[C@H](Cc3cccc(C(=O)O)c3)NC(=O)[C@H](CC(=O)O)NC1=O)NC(=O)[C@H](CC(C)(C)C)NC(=O)[C@H](CC(=O)O)NC2=O` (stereo partly drawn) [I-2459, Ac-PL3-Asp-Npg-B5-Asp-3COOHF-Gln-Ala-Phe-Leu-PyrS2-2F3MeF-RbMeBztA-Ala-NH2]: the IC50 in test [1] was determined as 15100 nM; in test [2], 56 nM.
